Data on seven molecules can be found in patent publication US12302903B2, “Oxazepinone derivative, agricultural/horticultural insecticide containing the same, and method for using the same” (priority 2019, dated 2025).

One series deals with zebrafish embryo. As to the kind of experiment: Teratogenicity test using zebrafish embryo. Format: in vivo. To be noted: zebrafish embryos exposed from 6 hours after fertilization, cultured at 28° C. for five days, 0.1% dimethyl sulfoxide. The method, then:
Test Example 4. Teratogenicity Test Using Zebrafish Embryo
Fertilized eggs obtained by mating zebrafish were cultured in a medium (0.3× Danieau's solution) at 28° C. until 6 hours after fertilization. Thereafter, the embryo was transferred to a medium into which the compound expressed by General Formula (1) according to the present invention dissolved in dimethyl sulfoxide was added, and cultured at 28° C. for five days. The concentration of dimethyl sulfoxide in the medium was 0.1%. 12 embryos were tested in each test concentration of the present invention.
Observation sites: notochord, tail, somite, eye, otolith, jaw, heart, blood vessel, abdomen, fin, etc.
From the results of these observations, the presence or absence of teratogenicity risk of the compound expressed by General Formula (1) according to the present invention and six compounds (Compound Nos. 4-10, 1-67, 1-1, 8-125, and 8-22, and a compound encompassed by the claims of Patent Literature 1 (Comparative Compound 4)) disclosed in the aforementioned Patent Literature 1 as the comparative compounds was determined.
It is noted that the teratogenicity test using zebrafish embryo is known to have good high predictivity to the teratogenicity test using the mammals (Reference Literature: Reproductive Toxicology 2012, (33), 155-164).

The test system of series [1] is Small Brown Planthopper (Laodelphax Striatellus). As to the kind of experiment: Test of insecticidal efficacy against Small Brown Planthopper (rice seedling dip). Particulars: 192 h, read-out: corrected insect mortality judgement against small brown planthopper. It is filed as in vivo. The protocol:
Test Example 2. Test of Insecticidal Efficacy Against Small Brown Planthopper (Laodelphax Striatellus)
The compound or salt thereof expressed by General Formula (1) according to the present invention was dispersed in water and the dispersion was diluted to 50 ppm in the form of a reagent, after which rice plants raised from seeds (variety: Nipponbare) were soaked in the reagent for 30 seconds and dried under wind, and then placed in glass test tubes, each of which was inoculated with 10 third-instar larvae of small brown planthoppers and sealed with cotton, and eight days after the inoculation, the number of live insects and that of dead insects were examined and the corrected insect mortality was calculated based on the formula below, and judgement was made according to the criteria below.
[formula] [formula] Criteria A—Corrected insect mortality: 100% B—Corrected insect mortality: 99% to 90% C—Corrected insect mortality: 89% to 80% D—Corrected insect mortality: 79% to 50%

`CN1C(=O)c2nn(-c3cccnc3)cc2Oc2ncc(C(F)(F)F)cc21` [Comparative Compound 1]: in the series on zebrafish embryo, the Teratogenicity risk result is reported as “Yes”. For the molecule `COCN1C(=O)c2nn(-c3cccnc3)cc2Oc2ccccc21` [Comparative Compound 2], the Teratogenicity risk result with zebrafish embryo is reported as “Yes”. With `O=C1Nc2ccccc2Oc2cn(-c3cccnc3)nc21` [Comparative Compound 3], the Teratogenicity risk result with zebrafish embryo is “Yes”. For the molecule `COCN1C(=O)c2nn(-c3cccnc3)cc2Oc2cc(OC(F)(F)F)ccc21` [Comparative Compound 4], the Teratogenicity risk entry with zebrafish embryo was “Yes”. For `CN1C(=O)c2nn(-c3cccnc3)cc2Oc2cc(OC(F)(F)F)ccc21` [Comparative Compound 5], the Teratogenicity risk result in the series with zebrafish embryo was “Yes”.

Regarding `COCN1C(=O)c2nn(-c3cccnc3)cc2Oc2c(F)cccc21` [Comparative Compound 6], the Teratogenicity risk result in the series on zebrafish embryo was “Yes”. On to `COCN1C(=O)c2nn(-c3cccnc3)cc2Oc2ncccc21` [Compound No. 1-1, 9-(methoxymethyl)-2-(pyridin-3-yl)-2H-pyrazolo[3,4-f]pyrido[2,3-b][1,4]oxazepine-10(9H)-one], for which the mortality (as a rule, the percentage killed) at 50 ppm in series [1] stood at 100%. For the same molecule, the Teratogenicity risk result in the series on zebrafish embryo was “No”.
